What all share (type): biochemical
Assay [1] concerns the target T1, JAK2 (catalytic domain, His-tag) (Homo sapiens, UniProt O60674).
T1 construct: All four purified enzymes contain only the catalytic domain; His (N); purchased Carna Biosciences, Inc; host or cells: baculovirus expression system
Kind of assay: JAK kinase assay (HTRF, phosphorylation of TK substrate-biotin), JAK2. As to conditions: ATP at Km (4 μM). In a few lines:
(§1)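 Compound was mixed with TK substrate-biotin (1 μM final), then kinase plus ATP at its Km was added and left 20-30 min at room temperature. Detection mix with EDTA, Streptavidin-XL665 and STK Ab Cryptate stopped the reaction; after overnight dark incubation, HTRF was read and EC50 derived.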

The target in assay [2] is T2, TYK2 (aa 871-1187, catalytic domain, GST-tag) (Homo sapiens, UniProt P29597).
T2 construct: JAK1 (aa 850-1154) and TYK2 (aa 871-1187) are expressed with an N-terminally fused GST-tag; GST (N); purchased Carna Biosciences, Inc; host or cells: baculovirus expression system
T2 sequence (P29597 871-1187): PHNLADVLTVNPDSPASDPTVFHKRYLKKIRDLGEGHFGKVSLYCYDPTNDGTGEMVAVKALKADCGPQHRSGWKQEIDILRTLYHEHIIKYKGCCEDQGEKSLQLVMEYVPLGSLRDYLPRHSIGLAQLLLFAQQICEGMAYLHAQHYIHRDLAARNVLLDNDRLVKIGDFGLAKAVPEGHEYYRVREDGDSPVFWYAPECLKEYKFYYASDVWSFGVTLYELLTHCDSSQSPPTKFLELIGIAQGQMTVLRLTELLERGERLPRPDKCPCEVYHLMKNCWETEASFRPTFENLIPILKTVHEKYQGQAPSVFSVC
Kind of assay: JAK kinase assay (HTRF, phosphorylation of TK substrate-biotin), TYK2. As to conditions: ATP at Km (13 μM). Summed up: as §1
(In general: In TR-FRET formats the signal depends on donor and acceptor labels being close together.)

The target of assay [3] is T3, JAK1 (aa 850-1154, catalytic domain, GST-tag) (Homo sapiens, UniProt P23458).
T3 construct: JAK1 (aa 850-1154) and TYK2 (aa 871-1187) are expressed with an N-terminally fused GST-tag; GST (N); purchased Carna Biosciences, Inc; host or cells: baculovirus expression system
Kind of assay: JAK kinase assay (HTRF, phosphorylation of TK substrate-biotin), JAK1. As to conditions: ATP at Km (7 μM). Summed up:
as §1

Assay [4] deals with T4, JAK3 (catalytic domain, His-tag) (Homo sapiens, UniProt P52333).
T4 construct: All four purified enzymes contain only the catalytic domain; His (N); purchased Carna Biosciences, Inc; host or cells: baculovirus expression system
Nature of the assay: JAK kinase assay (HTRF, phosphorylation of TK substrate-biotin), JAK3. As to conditions: ATP at Km (2 μM). In a few lines: as §1

Where [5] appears, read: HTRF assay, read-out: JAK2 kinase inhibitory activity (EC50 indicator).
Where [6] appears, read: HTRF assay, read-out: TYK2 kinase inhibitory activity (EC50 indicator).
The mark [7] stands for this setting: HTRF assay, read-out: JAK1 kinase inhibitory activity (EC50 indicator).
[8] abbreviates: HTRF assay, read-out: JAK3 kinase inhibitory activity (EC50 indicator).
The mark [9] stands for this setting: read-out: JAK2 kinase inhibitory activity (EC50 indicator).
The mark [10] stands for this setting: read-out: TYK2 kinase inhibitory activity (EC50 indicator).
Where [11] appears, read: read-out: JAK1 kinase inhibitory activity (EC50 indicator).
Where [12] appears, read: read-out: JAK3 kinase inhibitory activity (EC50 indicator).

SMILES strings stand for the structures. Where two headings read alike, the source gives them in different places.

For orientation: EC50 means the concentration needed to bring the measured effect to its halfway point.

T1 sequence (O60674 849-1124 limits assumed): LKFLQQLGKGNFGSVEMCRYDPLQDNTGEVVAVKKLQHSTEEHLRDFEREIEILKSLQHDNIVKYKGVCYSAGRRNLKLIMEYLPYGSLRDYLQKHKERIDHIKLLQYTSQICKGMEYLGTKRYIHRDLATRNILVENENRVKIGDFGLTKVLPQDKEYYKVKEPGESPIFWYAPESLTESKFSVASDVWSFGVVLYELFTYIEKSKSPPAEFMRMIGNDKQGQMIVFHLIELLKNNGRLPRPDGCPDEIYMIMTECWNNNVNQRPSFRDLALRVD
T4 sequence (P52333 822-1111 limits assumed): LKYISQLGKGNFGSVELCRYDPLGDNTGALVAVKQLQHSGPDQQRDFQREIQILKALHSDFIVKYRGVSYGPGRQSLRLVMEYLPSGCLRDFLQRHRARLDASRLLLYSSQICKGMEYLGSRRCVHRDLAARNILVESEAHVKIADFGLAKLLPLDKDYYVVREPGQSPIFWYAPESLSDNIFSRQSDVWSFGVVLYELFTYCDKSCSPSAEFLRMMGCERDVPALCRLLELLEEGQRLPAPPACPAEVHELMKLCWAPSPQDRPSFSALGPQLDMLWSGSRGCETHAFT
T3 sequence (P23458 850-1154): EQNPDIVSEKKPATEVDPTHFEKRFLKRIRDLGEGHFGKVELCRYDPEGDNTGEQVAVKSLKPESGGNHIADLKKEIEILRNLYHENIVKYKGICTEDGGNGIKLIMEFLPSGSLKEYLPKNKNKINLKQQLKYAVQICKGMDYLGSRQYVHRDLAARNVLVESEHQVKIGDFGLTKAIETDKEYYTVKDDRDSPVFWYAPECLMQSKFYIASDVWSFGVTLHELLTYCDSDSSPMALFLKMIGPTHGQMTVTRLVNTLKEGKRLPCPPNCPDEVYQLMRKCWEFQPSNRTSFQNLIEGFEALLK

Regarding `N#Cc1ccc(C(=O)N2CCN(c3ncnc4[nH]ccc34)CC23CC3)cc1F` [Example 219, 2-Fluoro-4-[7-(7H-pyrrolo[2,3-d]pyrimidin-4-yl)-4,7-diaza-spiro[2.5]octane-4-carbonyl]-benzonitrile], the EC50 was under 100 nM in assay [1] (setting [5]), 100 to 500 nM in assay [2] (setting [6]), under 100 nM in assay [3] (setting [7]) and 100 to 500 nM in assay [4] (setting [8]).

As to `Cc1ccc2[nH]c(C(=O)N3CCN(c4ncnc5[nH]ccc45)CC34CC4)cc2c1` [Example 184, (5-Methyl-1H-indol-2-yl)-[7-(7H-pyrrolo[2,3-d]pyrimidin-4-yl)-4,7-diaza-spiro[2.5]oct-4-yl]-methanone], the EC50 is under 100 nM in assay [1] (setting [9]), 100 to 500 nM in assay [2] (setting [10]), under 100 nM in assay [3] (setting [11]) and under 100 nM in assay [4] (setting [12]).

As for `CS(=O)(=O)c1ccc(CC(=O)N2C3CCC2CN(c2ncnc4[nH]ccc24)C3)cc1` [Example 134, 2-(4-Methanesulfonyl-phenyl)-1-[3-(7H-pyrrolo[2,3-d]pyrimidin-4-yl)-3,8-diaza-bicyclo[3.2.1]oct-8-yl]-ethanone], the EC50 in assay [1] (setting [9]) was 100 to 500 nM; in assay [2] (setting [10]), over 500 nM; in assay [3] (setting [11]), 100 to 500 nM; in assay [4] (setting [12]), over 500 nM.

Consider `CS(=O)(=O)c1ccc(C(=O)N2CCN(c3ncnc4[nH]ccc34)CC23CC3)c(Cl)c1` [Example 382, (2-Chloro-4-methanesulfonyl-phenyl)-[7-(7H-pyrrolo[2,3-d]pyrimidin-4-yl)-4,7-diaza-spiro[2.5]oct-4-yl]-methanone], for which the EC50 in assay [1] (setting [5]) is under 100 nM; in assay [2] (setting [6]), 100 to 500 nM; in assay [3] (setting [7]) it was under 100 nM; in assay [4] (setting [8]), over 500 nM.

Turning to `COC(=O)c1cc2c(N3CCN(C(=O)C4(C#N)CC4)C4(CC4)C3)ncnc2[nH]1` [Example 336, 4-[4-(1-Cyano-cyclopropanecarbonyl)-4,7-diaza-spiro[2.5]oct-7-yl]-7H-pyrrolo[2,3-d]pyrimidine-6-carboxylic acid methyl ester], the EC50 in assay [1] (setting [5]), in assay [2] (setting [6]), in assay [3] (setting [7]) and in assay [4] (setting [8]) was over 500 nM in each case.

For the compound `O=C(Cc1ccc(F)cc1)N1CCN(c2ncnc3[nH]cc(Cl)c23)CC12CC2` [Example 320, 1-[7-(5-Chloro-7H-pyrrolo[2,3-d]pyrimidin-4-yl)-4,7-diaza-spiro[2.5]oct-4-yl]-2-(4-fluoro-phenyl)-ethanone], the EC50 is under 100 nM in assay [1] (setting [5]), over 500 nM in assay [2] (setting [6]), 100 to 500 nM in assay [3] (setting [7]) and 100 to 500 nM in assay [4] (setting [8]).

With `O=C(c1cccc2cc(O)ccc12)N1[C@@H]2CC[C@@H]1CN(c1ncnc3[nH]ccc13)C2` [Example 359, (6-Hydroxy-naphthalen-1-yl)-[3-(7H-pyrrolo[2,3-d]pyrimidin-4-yl)-3,8-diaza-bicyclo[3.2.1]oct-8-yl]-methanone], the EC50 in assay [1] (setting [5]) is under 100 nM; in assay [2] (setting [6]) it was 100 to 500 nM; in assay [3] (setting [7]), under 100 nM; in assay [4] (setting [8]), under 100 nM.

For `O=C(CC1CCCC1)N1[C@@H]2CC[C@H]1CN(c1ncnc3[nH]ccc13)C2` [Example 38, 2-Cyclopentyl-1-[3-(7H-pyrrolo[2,3-d]pyrimidin-4-yl)-3,8-diazabicyclo[3.2.1]oct-8-yl]ethanone], the EC50 in assay [1] (setting [9]) was under 100 nM; in assay [2] (setting [10]) it was over 500 nM; in assay [3] (setting [11]), under 100 nM; in assay [4] (setting [12]) it was 100 to 500 nM.

Turning to `NS(=O)(=O)c1ccc(OCCC(=O)N2CCN(c3ncnc4[nH]ccc34)CC23CC3)cc1` [Example 452, 4-{3-Oxo-3-[7-(7H-pyrrolo[2,3-d]pyrimidin-4-yl)-4,7-diaza-spiro[2.5]oct-4-yl]-propoxy}-benzenesulfonamide], the EC50 was under 100 nM in assay [1] (HTRF assay, read-out: JAK2 kinase inhibitory activity (EC50)); over 500 nM in assay [2] (HTRF assay, read-out: TYK2 kinase inhibitory activity (EC50)); under 100 nM in assay [3] (HTRF assay, read-out: JAK1 kinase inhibitory activity (EC50)); under 100 nM in assay [4] (HTRF assay, read-out: JAK3 kinase inhibitory activity (EC50)).

Source of the values: US9346809B2 (LEO PHARMA A/S, priority 2009, dated 2016).
